Results as given in patent publication US20220313651A1, “INHIBITORS OF ZIKA VIRUS INFECTION” (priority 2019, published 2022).
Read-outs that look alike come from different tables or passages of the source.

How the values were obtained:
[1] = tested on: ZIKV human strain R103451 (2015/Honduras); assay: Plaque reduction inhibition assay in Vero E6 cells, ZIKV R103451; assay type: cell-based, Zika virus (ZIKV)
Method: (§1) A plaque reduction inhibition assay was carried out to measure the inhibitory activity of Z-medicaments against infections of ZIKV and DENV. […] The compound-virus mixtures were then transferred to Vero E6 cells (10^5/well) and incubated at 37° C. for 1 h.

[2] = tested on: ZIKV human strain PRVABC59 (2015/Puerto Rico); assay: Plaque reduction inhibition assay in Vero E6 cells, ZIKV PRVABC59; assay type: cell-based, Zika virus (ZIKV)
Method: as §1

[3] = tested on: ZIKV human strain PLCal_ZV (2013/Thailand); assay: Plaque reduction inhibition assay in Vero E6 cells, ZIKV PLCal_ZV; assay type: cell-based, Zika virus (ZIKV)
Method: as §1

[4] = molecular target: T1, ZIKV EDIII protein (E residues 298-409) (Zika virus, UniProt Q32ZE1, D679E/I627V/V603I/V629A); assay type: binding; conditions: ELISA
T1 construct: human Fc (C)
Method: Binding of compounds (NPs) to ZIKV full-length E (FIG. 3A), EDIII (FIG. 3B), and NS2B-NS3 (FIG. 3C) proteins, was detected by ELISA. The percent binding was reported in the presence or absence of serially diluted NPs using the formula (1-[E/EDIII-NP]/[E/EDIII])×100 (for E/EDIII binding) or (1-[NS2B-NS3-NP]/[NS2B-NS3])×100 (for NSEB-NS3 binding). […] The concentrations of ZIKV EDIII and mAbs were 1.5 and 0.5 μg/ml, respectively. […] The concentrations of substrate (Bz-Nle-Lys-Lys-Arg-AMC) and ZIKV NS2B-NS3 protein were 4 μM and 1 μg/ml, respectively. The percent inhibition of protease activity was calculated in the presence or absence of serially diluted compounds using the formula (1-[NS2B-NS3-substrate-NP]/[NS2B-NS3-substrate])×100. The IC50 values were calculated based on the percent inhibition. The data are expressed as mean±s.e.m. (n=4).
The data are expressed as mean±s.e.m. (n=4), and DMSO was used as negative control. Surface plasmon resonance (SPR) analysis of the binding between ST087010 and ZIKV EDIII (FIG. 6D) or NS2B-NS3 (FIG. 6E) protein was performed. Binding affinity was shown as KD (equilibrium dissociation constant).
The binding between the Z-medicament and ZIKV full-length E protein, EDIII protein (E residues 298-409 fused with a C-terminal human Fc), or NS2B-NS3 protease was carried out by ELISA. Briefly, ELISA plates were pre-coated with the proteins described above at 4° C. overnight, and blocked with 2% fat-free milk at 37° C. for 2 h. Serial dilutions of the Z-medicament or DMSO (control) were then added to the plates and incubated at 37° C. for 2 h. The plates were washed with PBS containing Tween-20 (PBST), and incubated at 37° C. for 1 h with ZIKV EDIII-specific human mAb ZKA64-LALA (0.5 μg/ml) (for binding to ZIKV full-length E and EDIII proteins), or mouse sera specific to ZIKV NS2B-NS3 (for binding to NS2B-NS3 protease). The plates were washed with PBST, and incubated with horseradish peroxidase (HRP)-conjugated anti-human IgG-Fab (1:3000) or anti-mouse IgG (1:3000) antibody at 37° C. for 1 h. The 3,3′,5,5′-tetramethylbenzidine (TMB) substrate was added to the plates, and the reaction was stopped by 1 N H2SO4. Absorbance at 450 nm (A450 value) was measured by ELISA microplate reader.
Briefly, ELISA plates were coated with each protein (1 μg/ml) at 4° C. overnight, and were then incubated with blocking buffer containing 2% fat-free milk in PBST at 37° C. for 2 h. The above compounds, or DMSO control, at serial dilutions were added to the plates, and incubated at 37° C. for 2 h. […] Absorbance at 450 nm (A450 values) was measured by an ELISA microplate reader. EC50 values were calculated.

[5] = tested on: LLC-MK2 cells
Method: The cytotoxicity of Z-medicaments in LLC-MK2 (DENV-1-4 target cells) was detected using Cell Counting Kit-8 (CCK8). […] The cells were then incubated with CCK8 solution, and measured absorbance at 450 nm (A450 value) using a microplate reader.
Briefly, compounds at 2-fold serial dilutions were added to cells (2.0×10^4/well) pre-seeded in 96-well plates. The cells were cultured at 37° C. for 3 days, and incubated with CCK8 solution, followed by measurement of absorbance at 450 nm (A450 value) using microplate reader.

[6] = tested on: ZIKV PRVABC59 strain; assay: Combinatorial effects of gossypol with other Z-medicaments, ZIKV PRVABC59; assay type: cell-based, Zika virus (ZIKV); conditions: for Fold of Enhancement: IC50 alone / in mixture; for CI (combination index): named compound in combination with gossypol
Method: (§2) The unbound viruses and Z-medicaments were removed, and the cells were cultured at 37° C. for 4-5 days, followed by staining with 0.5% crystal violet. The Z-medicaments without combinations were used as controls. The IC50 of the Z-medicaments was calculated as described above.
(§3) The Z-medicaments were then analyzed for synergistic effects based on the combination index (CI) and IC50 values using the CalcuSyn program. Specifically, CI values <1 and >1 indicate synergy and antagonism, respectively. Synergy was further identified as five different categories: CI values <0.1, 0.1-0.3, 0.3-0.7, 0.7-0.85, and 0.85-0.90 indicate very strong synergism, strong synergism, synergism, moderate synergism, and slight synergism, respectively. Fold enhancement of anti-ZIKV potency is expressed as the ratio of molar concentrations of the Z-medicaments tested alone and in the mixture.

[7] = tested on: ZIKV PAN2016 strain; assay: Combinatorial effects of gossypol with other Z-medicaments, ZIKV PAN2016; assay type: cell-based, Zika virus (ZIKV); conditions: for Fold of Enhancement / CI (combination index): ZIKV PAN2016; for Fold of Enhancement: IC50 alone / in mixture; for CI (combination index): named compound in combination with gossypol
Method: as §2, §3

[8] = Zika virus, Vero C1008, Vero E6 cells, Table 1, read-out: IC50 against ZIKV strain R103451
[9] = Zika virus, Vero C1008, Vero E6 cells, Table 1, read-out: IC50 against ZIKV strain PLCal_ZV

T1 sequence (Q32ZE1 584-695 V603I/I627V/V629A/D679E): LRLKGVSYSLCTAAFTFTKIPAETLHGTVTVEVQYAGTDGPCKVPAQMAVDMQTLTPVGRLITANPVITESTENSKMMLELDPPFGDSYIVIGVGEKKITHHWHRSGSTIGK

Cc1cc2c(C(C)C)c(O)c(O)c(/C=N/n3c(=O)[nH][nH]c3=O)c2c(O)c1-c1c(C)cc2c(C(C)C)c(O)c(O)c(/C=N/n3c(=O)[nH][nH]c3=O)c2c1O [ST087010]
IC50 ([1]; Vero E6 cells, Table 7, gossypol derivatives, read-out: ZIKV strains IC50, R103451): 3.6 ± 0.07 µM
IC50 ([2]; Vero E6 cells, Table 7, gossypol derivatives, read-out: ZIKV strains IC50, PRVABC59): 2.36 ± 0.05 µM
IC50 ([3]; Vero E6 cells, Table 7, gossypol derivatives, read-out: ZIKV strains IC50, PLCal_ZV): 2.21 ± 0.08 µM
EC50 ([4]; detected with mAb ZKA64-LALA, read-out: EC50, binding to ZIKV EDIII protein): 6.13 µM
CC50 ([5]; Table 8): 47.2 µM

C[C@@H]1CC[C@@]2(OC1)O[C@H]1[C@@H](O)[C@H]3[C@@H]4CC[C@H]5C[C@@H](O[C@@H]6O[C@H](CO)[C@H](O[C@@H]7O[C@H](CO)[C@@H](O)[C@H](O[C@@H]8OC[C@@H](O)[C@H](O)[C@H]8O)[C@H]7O[C@@H]7O[C@H](CO)[C@H](O)[C@H](O[C@@H]8O[C@H](CO)[C@@H](O)[C@H](O)[C@H]8O)[C@H]7O)[C@H](O)[C@H]6O)[C@H](O)C[C@]5(C)[C@H]4CC[C@]3(C)[C@H]1[C@@H]2C [Digitonin, digitonin]
IC50 [1, 8]: 4.3 ± 0.43 µM
Fold of Enhancement ([6]; gossypol + digitonin): 6.98
CI (combination index) [6]: 0.29
IC50 ([2]; Zika virus, Vero C1008, Vero E6 cells, Table 1, read-out: IC50 against ZIKV strain PRVABC59): 3.76 ± 1.12 µM
IC50 [3, 9]: 3.19 ± 0.25 µM
Binding to ZIKV EDIII protein (in words) [4]: bound to no ZIKV proteins tested
Fold of Enhancement ([7]; gossypol + digitonin): 3.21
CI (combination index) [7]: 0.60
CC50 ([5]; 3 days, CCK8, Table 5): 59.02 ± 0.33 µM

C[C@H]1[C@H]2CC[C@H]3[C@@H]4CC=C5C[C@@H](N(C)C)CC[C@]5(C)[C@H]4CC[C@]23CN1C [Conessine, conessine]
Fold of Enhancement ([6]; gossypol + conessine): 7.29
CI (combination index) [6]: 0.28
Binding to ZIKV EDIII protein (in words) [4]: bound to no ZIKV proteins tested
Fold of Enhancement ([7]; gossypol + conessine): 4.44
CI (combination index) [7]: 0.44

COc1cc(/C=C/C(=O)CC(=O)/C=C/c2ccc(O)c(OC)c2)ccc1O [Curcumin, curcumin]
Fold of Enhancement ([6]; gossypol + curcumin): 6.46
CI (combination index) [6]: 0.30
Fold of Enhancement ([7]; gossypol + curcumin): 3.60
CI (combination index) [7]: 0.52
CC50 ([5]; 3 days, CCK8, Table 5): 59.4 ± 1.18 µM

Cc1cc2c(C(C)C)c(O)c(O)c(C=O)c2c(O)c1-c1c(C)cc2c(C(C)C)c(O)c(O)c(C=O)c2c1O [Gossypol, gossypol]
IC50 [1, 8]: 2.28 ± 0.1 µM
IC50 ([1]; Zika virus, Vero C1008, read-out: ZIKV strains IC50, R103451): 3.12 ± 0.38 µM
IC50 ([2]; Zika virus, Vero C1008, read-out: ZIKV strains IC50, PRVABC59): 4.55 ± 0.07 µM
IC50 [3, 9]: 1.98 ± 0.07 µM
IC50 ([3]; Zika virus, Vero C1008, read-out: ZIKV strains IC50, PLCal_ZV): 2.88 ± 0.19 µM
IC50 ([7]; Zika virus, Vero C1008, read-out: IC50 Alone): 3.79 ± 0.01 µM
